Reference: PMC5706701, “Development of a homogenous high-throughput assay for inositol hexakisphosphate kinase 1 activity” (PLoS ONE, 2017)
Counter-ions that a name gives are not always drawn.

Molecular target: T1, Human IP6K1 (Homo sapiens, UniProt Q92551)
T1 construct: GST (N, cleaved yes); made in house; host or cells: C43 E. coli, pGEX-6P-2
Assay: IP6K1 high-throughput screen of the Sigma LOPAC (ADP-Glo Max, single point);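 note: final compound concentration 10µM in 5% DMSO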
Type: biochemical

[1] = LOPAC single-point screen, ADP-Glo Max raw signal per well
[2] = LOPAC single-point screen, Z-score against plate average and StDev
[3] = Sigma LOPAC single-point screen, ADP-Glo Max raw signal per well
[4] = Sigma LOPAC single-point screen, Z-score from plate average and StDev
[5] = LOPAC single-point screen, Z-score from raw signal with plate average and StDev
[6] = LOPAC single-point screen, ADP-Glo Max luminescence raw signal per well
[7] = LOPAC single-point screen, Z-score relative to plate average and StDev

T1 sequence (Q92551 whole entry): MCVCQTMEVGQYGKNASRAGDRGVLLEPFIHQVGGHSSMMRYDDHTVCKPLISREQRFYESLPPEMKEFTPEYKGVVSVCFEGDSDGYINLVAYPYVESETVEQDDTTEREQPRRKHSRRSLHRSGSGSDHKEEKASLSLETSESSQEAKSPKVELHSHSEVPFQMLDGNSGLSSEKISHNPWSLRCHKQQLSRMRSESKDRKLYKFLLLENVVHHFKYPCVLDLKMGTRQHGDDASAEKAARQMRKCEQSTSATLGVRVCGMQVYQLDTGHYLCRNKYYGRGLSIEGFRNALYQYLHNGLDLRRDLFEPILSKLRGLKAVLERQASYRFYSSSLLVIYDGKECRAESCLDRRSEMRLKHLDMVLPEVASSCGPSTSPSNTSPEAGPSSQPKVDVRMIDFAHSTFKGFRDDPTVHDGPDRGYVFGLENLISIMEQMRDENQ

SMILES | Raw Signal [1] | Raw Signal [3] | Z-score [4] | further results
O=C(O)/C=C/C(=O)O.O=C(O)/C=C/C(=O)O.O=C(O)/C=C/C(=O)O.O=C1CCCN1CC#CCN1CCCC1.O=C1CCCN1CC#CCN1CCCC1 [Oxotremorine sesquifumarate salt] | 55438 | – | – | Z-score [2]: 0.1755
Cc1cc(O)c2c(c1)C(=O)c1cc(O)cc(O)c1C2=O [Emodin] | – | 61234 | 1.232 | –
CC(O)C(C)OC(=O)[C@@H]1C[C@@H]2c3cccc4c3c(cn4C(C)C)C[C@H]2N(C)C1.O=C(O)/C=C\C(=O)O (stereo partly shown) [LY-53,857 maleate] | – | 58270 | 0.6514 | –
CC[N+](CC)(CC)CCOc1cccc(OCC[N+](CC)(CC)CC)c1OCC[N+](CC)(CC)CC [Gallamine triethiodide] | 56632 | – | – | Z-score [2]: 0.2975
COc1ccc(Cl)cc1C(=O)NCCc1ccc(S(=O)(=O)NC(=O)NC2CCCCC2)cc1 [Glibenclamide] | – | 57524 | 0.4787 | –
CNC1(C)C2CCC(C2)C1(C)C (stereo not shown) [Mecamylamine hydrochloride] | 55214 | – | – | Z-score [2]: 0.1379
c1ccc2c(CC3=NCCN3)cccc2c1 [Naphazoline hydrochloride] | 52798 | – | – | Z-score [5]: -0.2681
CC(=O)Oc1cc(C(C)C)c(OCCN(C)C)cc1C [Moxisylyte hydrochloride] | 54969 | – | – | Z-score [2]: 0.0967
[H]/N=C(/NC)NCCC[C@H](N)C(=O)O [NG-Monomethyl-L-arginine acetate] | – | – | – | Raw Signal [6]: 51513; Z-score [7]: -0.484
COc1cc(/C=C(\C#N)C(=O)c2ccc(O)c(O)c2)cc(I)c1O [I-OMe-Tyrphostin AG 538] | 53763 | – | – | Z-score [5]: -0.4392
CSc1ccc2c(c1)C(N1CCN(C)CC1)Cc1ccccc1S2 (stereo not shown) [Methiothepin mesylate] | – | 58558 | 0.6997 | –
NCCCS(=O)(=O)O.[Na] [3-Amino-1-propanesulfonic acid sodium] | – | – | – | Raw Signal [6]: 52858; Z-score [7]: -0.8903
O=S(=O)(c1cccc2c(I)cccc12)N1CCCNCC1 [ML-7] | – | – | – | Raw Signal [6]: 65221; Z-score (LOPAC single-point screen, Z-score from plate average and StDev): 1.8193
C[N+](C)(C)CCOC(=O)CCC(=O)OCC[N+](C)(C)C [Succinylcholine chloride] | – | – | – | Raw Signal [6]: 51489; Z-score [7]: -0.881
CC[C@@H]1C(=O)OC[C@@H]1Cc1cncn1C [Pilocarpine nitrate] | – | 59730 | 0.8967 | –
CC[C@@]1(O)C(=O)OCc2c1cc1n(c2=O)Cc2cc3ccccc3nc2-1 [(S)-(+)-Camptothecin] | – | 58626 | 0.7025 | –
CCN(CCCl)Cc1ccccc1Br.Cl [DSP-4 hydrochloride] | 57186 | – | – | Z-score [5]: -0.1281
Oc1cc(O)cc(/C=C/c2ccc(O)c(O)c2)c1 [Piceatannol] | – | – | – | Raw Signal [6]: 49635; Z-score [7]: -0.7996
O=C(c1cc(O)c(O)c([N+](=O)[O-])c1)c1ccccc1F [Ro 41-0960] | – | 58523 | 0.4855 | –
CC(C)(C)NCC(O)c1cc(O)cc(O)c1.CC(C)(C)NCC(O)c1cc(O)cc(O)c1.O=S(=O)(O)O (stereo not shown) [Terbutaline hemisulfate] | – | 59192 | 0.6155 | –
COc1cc(C[C@@H](C)N)c(OC)cc1I.Cl [( R)-(-)-DOI hydrochloride] | 54807 | – | – | Z-score [2]: -0.07312
CCSC(=N)Nc1ccc(C(F)(F)F)cc1.Cl [TFPI hydrochloride] | 53926 | – | – | Z-score [5]: -0.4076
COC(=O)C1=CCCN(C)C1 [Arecoline hydrobromide] | 57110 | – | – | Z-score [5]: -0.1414
NC(=O)NO [Hydroxyurea] | – | – | – | Raw Signal [6]: 51854; Z-score [7]: -0.6728
O=C1NCN(c2ccccc2)C12CCN(CC1COc3ccccc3O1)CC2 (stereo not shown) [Spiroxatrine] | 55965 | – | – | Z-score [2]: -0.01142
CO[C@@]1(NC(=O)CSCC#N)C(=O)N2C(C(=O)O)=C(CSc3nnnn3C)CS[C@@H]21 [Cefmetazole sodium] | – | – | – | Raw Signal [6]: 53279; Z-score [7]: -0.8162
